Reference: article PMC10226046, “Prodrug Strategies for the Development of β-L-5-((E)-2-Bromovinyl)-1-((2S,4S)-2-(hydroxymethyl)-1,3-(dioxolane-4-yl))uracil (L-BHDU) against Varicella Zoster Virus (VZV)” (Journal of Medicinal Chemistry, 2023)
Read-outs that look alike come from different tables or passages of the source.

Columns and labels:
VZV-ORF57-Luc [1] = settings: for EC50: cell-free VZV-ORF57-Luc, ARPE-19 cells, 72 hpi, bioluminescence imaging
VZV-ORF57-ΔTK = assay: microbe, parasite or virus in culture; type: cell-based, Varicella zoster virus; settings: Human alphaherpesvirus 3, ARPE-19
[2] = Neutral red dye uptake cytotoxicity assay in ARPE-19 cells; settings: human
VZV-ORF57-ΔTKTS = assay: microbe, parasite or virus in culture; type: cell-based, Varicella zoster virus; settings: Human alphaherpesvirus 3, ARPE-19
[3] = Stability in gastric and intestinal juice; type: in vitro ADME; settings: data not shown
[4] = Oral pharmacokinetic absorption study in BALB/c mice (plasma, LC-MS/MS); type: in vivo; settings: after oral 22.5 mg/kg POM-L-BHDU-MP, LC/MS
Protocol: A pharmacokinetic absorption study was performed in BALB/c mice (Charles River). A single equimolar dose of 22.5 mg/kg POM-L-BHDU-MP or 11.4 mg/kg L-BHDU was dissolved in Cremophor–dimethyl sulfoxide (DMSO)–saline (1:1:8) and administered by oral gavage to two groups of mice with equal numbers of male and female mice (N = 15 each male and female).
Plasma was separated from red blood cells and immediately frozen at −80 °C.
This animal protocol #282 was approved by the IACUC at SUNY Upstate Medical University, which has been fully accredited by AAALAC since 7/31/1999. This method was previously used to evaluate L-BHDU effects on 5-fluorouracil metabolism.[16] Briefly, a single equimolar dose of 22.5 mg/kg POM-L-BHDU-MP or 11.4 mg/kg L-BHDU was dissolved in Cremophor–DMSO–saline (1:1:8) and administered by oral gavage to two groups of BALB/c mice (Charles River) with equal numbers of male and female mice (N = 15 each male and female). Six untreated mice were used for blank controls and were labeled time 0. At 20, 40, 60, and 120 min, three mice from the POM-L-BHDU-MP group and three mice from the L-BHDU group were anesthetized with inhaled isoflurane and then exsanguinated by cardiac puncture. Blood samples were collected into a tube containing heparin. Plasma was separated from red blood cells by centrifugation at 10,000 rpm for 5 min. Plasma was transferred to a new tube and immediately frozen at −80 °C.
Plasma samples were thawed, and exactly 0.95 mL was removed for analysis. The internal standard azidothymidine was added to mouse plasma samples at a final concentration of 20 ng/mL. Proteins were precipitated from the plasma by adding 2× volumes of methanol, then the samples were clarified by centrifugation. The supernatants were dried using an N-EVAP 116 analytical nitrogen evaporator and then reconstituted with 50% methanol in water. LC-MS/MS was used to analyze the concentrations of POM-L-BHDU-MP, L-BHDU, and L-BHDU-MP. Calibration curves were made using BALB/c mouse plasma (Innovative Research, Inc. Novi MI) prior to analyzing the experimental samples.
The primary stock solutions for the calibration were prepared at 0.5 mg/mL for L-BHDU, 1 mg/mL for POM-L-BHDU-MP, and 1 mg/mL for L-BHDU-MP. The primary stock solutions were diluted to working solutions that were in turn used to spike the biological matrix of interest. L-BHDU calibration points were 100.0, 400.0, 800.0, 1000.0, 4000.0, 6000.0, 8000.0, 10,000.0, and 12,000.0 ng/mL. L-BHDU-MP calibration points were 100.0, 200.0, 400.0, 800.0, 1000.0, 2000.0, 4000.0, 6000.0, and 8000.0 ng/mL. The ISTD working solution of AZT was prepared at 20 ng/mL. The standard stock solutions were stored in −80 °C freezer until used. […] The samples were analyzed in a negative ESI mode. […]

VZV-ORF57-Luc [5] = assay: microbe, parasite or virus in culture; settings: Human alphaherpesvirus 3, ARPE-19, cell-free VZV-ORF57-Luc, ARPE-19 cells, 72 hpi, bioluminescence imaging

CC(C)(C)C(=O)OCOP(=O)(OCOC(=O)C(C)(C)C)OC[C@H]1OC[C@@H](n2cc(/C=C/Br)c(=O)[nH]c2=O)O1 [POM-L-BHDU-MP (41), Bis(POM) Prodrug of L-BHDU-MP]
SI (CC50/EC50) (VZV-ORF57-Luc [1]): >2809
EC50 (VZV-ORF57-Luc [1]): 35.6 nM
EC50 (VZV-ORF57-Luc [1]; listed as POM-L-BHDU-MP): 36 nM
SI (CC50/EC50) (VZV-ORF57-Luc [1]; selectivity index = CC50/EC50, ARPE-19 cells): >2809
SI (CC50/EC50) (VZV-ORF57-Luc [1]; selectivity index = CC50/EC50, ARPE-19 cells, listed as POM-L-BHDU-MP): > 2809
EC50 (VZV-ORF57-ΔTK): > 2000 nM
CC50 at 72 h [2]: > 100000 nM
EC50 (VZV-ORF57-ΔTKTS): > 2000 nM
stability in gastric and intestinal juice [3]: good stability
L-BHDU-MP detected in plasma [4]: below the limit of quantitation
EC50 (VZV-ORF57-Luc [5]): 35 nM
